# In patent publication US6706289B2, “Methods and compositions for enhanced delivery of bioactive molecules” (priority 2000, dated 2004):
# Like-named read-outs stand apart in the source and are kept apart here.
# Assays:
# [1] = Mean particle size of microparticles estimated from SEM; type: physicochemical
# [2] = type: physicochemical
# Protocol: (§1) Core loading measurement of the microspheres was done by dissolving 10 mg of microspheres in 50% acetonitrile followed by centrifugation to pellet the insoluble polymer. Aliquots were analyzed by RP-HPLC and compared to representative standards prepared in 50% acetonitrile. […] The suspensions were vortexed and incubated at 37° C. After 1 hour, aliquots were removed, filtered and analyzed for the amount released by RP-HPLC.
# [3] = Initial release at 1 h, in vitro dissolution of microparticles; type: physicochemical; details: Monophase microparticles; PBS (50 mM, pH 7.2), 0.02% Tween 20, 25% EtOH, 37° C.
# Protocol: as §1
# [4] = test system: normal rats; experiment: Hypoglycemic effect: blood glucose levels after subcutaneous administration; type: in vivo
# Protocol: PEG-Insulin PLGA microspheres and an equivalent dose of free insulin were administered subcutaneously to normal rats. Blood was drawn periodically and anticoagulated. Blood glucose levels were measured by standard tests.
# [5] = Double-emulsion (w1/o/w2) PLGA microparticles
Compound,"PS—Mean Particle Size (estimated from SEM) [1, 5]",PS—Mean Particle Size (estimated from SEM) ([1]; Monophase PLGA microparticles),"CL—Coreload (wt % of active in microparticle as isolated) [2, 5]","EE—Encapsulation Efficiency (% of active encapsulated in process) [2, 5]",CL—Coreload (wt % of active in microparticle as isolated) ([2]; Monophase PLGA microparticles),EE—Encapsulation Efficiency (% of active encapsulated in process) ([2]; Monophase PLGA microparticles),IR—Initial Release at 1 h from in vitro dissolution [3],% BGL (glucose normalized to a percentage of basal levels) ([4]; Time 0 hr),% BGL (glucose normalized to a percentage of basal levels) ([4]; Time 1 hr),% BGL (glucose normalized to a percentage of basal levels) ([4]; Time 2 hr),% BGL (glucose normalized to a percentage of basal levels) ([4]; Time 4 hr),% BGL (glucose normalized to a percentage of basal levels) ([4]; Time 6 hr),% BGL (glucose normalized to a percentage of basal levels) ([4]; Time 8 hr),% BGL (glucose normalized to a percentage of basal levels) ([4]; Time 12 hr),"size range of resulting microspheres ([1]; PLGA microspheres (w/o/w), collected on 25 micron sieve)"
C[C@@H](NC(=O)[C@@H](N)Cc1ccc(O)cc1)C(=O)NCC(=O)N[C@@H](Cc1ccccc1)C(=O)NNC(=O)[C@H](Cc1ccccc1)NC(=O)CNC(=O)[C@@H](C)NC(=O)[C@@H](N)Cc1ccc(O)cc1 [Biphalin],50-250 μm,20-100 μm,0.24%,14.28%,0.36%,3.64%,49.4%,–,–,–,–,–,–,–,–
Insulin: recombinant human insulin; PLGA microparticles of Examples 14 and 16,100-350 μm,30-100 μm,0.23%,–,0.6%,–,–,–,–,–,–,–,–,–,–
"PEG-Insulin: Human insulin covalently modified with polyethylene glycol, mPEG(5000)-SPA; PLGA microparticles of Examples 15 and 17",50-250 μm,50-100 μm,–,–,–,–,–,100%,111.1%,86.5%,97%,98.5%,82%,88.8%,–
pegylated GM-CSF: GM-CSF conjugated to tresyl-monomethoxy-polyethylene glycol (MW=5000 daltons); paper example,–,–,–,–,–,–,–,–,–,–,–,–,–,–,25-200 μm
